From ChEMBL document CHEMBL1152180, “Novel anthraquinone derivatives: synthesis via click chemistry approach and their induction of apoptosis in BGC gastric cancer cells via reactive oxygen species (ROS)-dependent mitochondrial pathway” (Bioorg Med Chem Lett, 2008)
Active and inactive are the calls of the source. No cut-off for these calls is given here.

Tests used:
[1] = Cytotoxicity against human BGC cells by MTT assay; type: functional, cell-based
BGC [2] = test: Induction of apoptosis in human BGC cells assessed as morphological changes at 12.5 uM by Hoechst staining based laser confocal microscopy; type: functional, cell-based
[3] = Induction of apoptosis in human BGC cells assessed as early stage apoptotic cell count at 25 uM after 24 hrs using Annexin-V-FITC PI stain by flow cytometry; type: functional
[4] = Induction of apoptosis in human BGC cells assessed as late stage apoptotic cell count at 25 uM after 24 hrs using Annexin-V-FITC PI stain by flow cytometry; type: functional
[5] = Induction of apoptosis in human BGC cells assessed as non apoptotic cell count at 25 uM after 24 hrs using Annexin-V-FITC PI stain by flow cytometry; type: functional
[6] = Induction of apoptosis in human BGC cells assessed as dead cell count at 25 uM after 24 hrs using Annexin-V-FITC PI stain by flow cytometry; type: functional
BGC [7] = test: Induction of apoptosis in human BGC cells assessed as bursting of ROS in mitochondria at 5 uM by DCFH-DA based fluorescence scanning confocal microscopy; type: functional, cell-based
BGC [8] = test: Induction of apoptosis in human BGC cells assessed as bursting of ROS in mitochondria at 5 uM by flow cytometry; type: functional, cell-based
BGC [9] = test: Induction of apoptosis in human BGC cells assessed as bursting of ROS in mitochondria at 5 uM in presence of N-acetyl-cysteine; type: functional
BGC [10] = test: Induction of apoptosis in human BGC cells assessed as loss of mitochondrial membrane potential at 10 uM by JC-1 staining based laser confocal microscopy; type: functional, cell-based
BGC [11] = test: Induction of apoptosis in human BGC cells assessed as loss of mitochondrial membrane potential at 10 uM by flow cytometry; type: functional, cell-based
[12] = Induction of apoptosis in human BGC cells assessed as accumulation at subG1 at 25 uM after 24 hrs by flow cytometry analysis; type: functional

| SMILES | IC50 [1] [µM] | Activity (BGC [2]) | Activity [3] [%] | Activity [4] [%] | Activity [5] [%] | Activity [6] [%] | Activity (BGC [7]) | Activity (BGC [8]) | Activity (BGC [9]) | Activity (BGC [10]) | Activity (BGC [11]) | Activity [12] [%] |
| --- | --- | --- | --- | --- | --- | --- | --- | --- | --- | --- | --- | --- |
| C[N+]1(CCn2cc(COc3cccc4c3C(=O)c3cccc(OCc5cn(CC[N+]6(C)CCCCC6)nn5)c3C4=O)nn2)CCCCC1.[I-].[I-] | 4.02 | Active | 22.8 | 1 | 74.2 | 2.1 | Active | Dose-dependent effect | inactive | Active | Dose-dependent effect | 39.4 |
| C[N+]1(CCCn2cc(COc3cccc4c3C(=O)c3cccc(OCc5cn(CCC[N+]6(C)CC6)nn5)c3C4=O)nn2)CC1 | 9.31 |  |  |  |  |  |  |  |  | Active | Dose-dependent effect |  |
| C[N+]1(CCn2cc(COc3cccc4c3C(=O)c3cccc(OCc5cn(CC[N+]6(C)CCCC6)nn5)c3C4=O)nn2)CCCC1 | 6.52 |  |  |  |  |  |  |  |  | Active | Dose-dependent effect |  |
